Measured values taken from patent publication US11077115B2, “Rorgamma modulators and uses thereof” (Genfit, priority 2017, dated 2021).

How the values were obtained:
[1] = biological target: T1, RORγt ligand-binding domain (RORγt-LBD) (Homo sapiens, UniProt P51449); assay: Time-resolved FRET (TR-FRET) RORγt coactivator assay (RIP140 peptide displacement); format: biochemical; conditions: ligand-dependent coactivator-RORγt binding
T1 construct: 20 nM recombinantly expressed RORγ-LBD fused to GST
T1 sequence (P51449 269-508 limits assumed): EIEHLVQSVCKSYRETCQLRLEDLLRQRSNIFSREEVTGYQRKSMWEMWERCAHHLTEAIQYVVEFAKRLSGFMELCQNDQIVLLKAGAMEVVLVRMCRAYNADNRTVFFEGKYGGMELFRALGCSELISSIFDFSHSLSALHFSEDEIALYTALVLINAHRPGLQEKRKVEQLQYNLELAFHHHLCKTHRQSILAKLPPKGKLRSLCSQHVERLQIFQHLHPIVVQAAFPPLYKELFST
Description: Time-resolved FRET (TR-FRET) RORγt coactivator assay was used to identify RORγ modulator compounds with ligand-dependent coactivator displacement. The assay uses a d2-labeled anti-GST antibody, synthetic N-terminally biotinylated peptide which is derived from nuclear receptor coactivator protein RIP140, and a RORγt ligand-binding domain (RORγt-LBD) that is tagged with glutathione-S-transferase (GST). The influence of compounds on the RORγ-peptide interaction relies on the binding dependent energy transfer from a donor to an acceptor fluorophor attached to the binding partner of interest. […] For reduction of background from compound fluorescence, TR-FRET method makes use of generic fluorophore labels and time resolved detection.
The assays were done in a final volume of 20 μl in a 384 well plate in a CHAPS buffer (2 mM CHAPS; 1 mM DTT, 2 mM EDTA; 0.1% BSA), containing 20 nM recombinantly expressed RORγ-LBD fused to GST, 30 nM N-terminally biotinylated peptide, 1 nM streptavidin-terbium conjugate and 20 nM d2 labeled-anti-GST. Test compounds were diluted using 10 mM stock solution. The range of the final compound concentrations used in this test was from 0.3 nM to 30 μM (logarithmic scale). DMSO content of the samples was kept at 1%. The assay was equilibrated for 2 hours in the dark at room temperature in 384 well plates (Falcon). The signal was detected by an Ultra384 reader (TECAN). […] Compounds that promote coactivator displacement induce a concentration-dependent decrease in time-resolved fluorescent signal. Data were collected and analyzed using GraphPad Prism software (GraphPad Software V5.02, San Diego Calif. USA). IC50 in μM and E max in % were reported for each compound.

[2] = biological target: T2, human RORγt (Homo sapiens, UniProt P51449); assay: RORE Luciferase/RORγt transactivation assay (IL-17 promoter luciferase reporter in COS-7 cells); format: cell-based; design: V5-His (named only through the vector pcDNA3.1D/V5-His-TOPO); expressed in transfected cells; host or cells: COS-7 (monkey kidney); conditions: RORγt activity inhibition, luciferase activity in transfected COS-7 cells, 20 h
T2 sequence (P51449 1-497 isoform P51449-2): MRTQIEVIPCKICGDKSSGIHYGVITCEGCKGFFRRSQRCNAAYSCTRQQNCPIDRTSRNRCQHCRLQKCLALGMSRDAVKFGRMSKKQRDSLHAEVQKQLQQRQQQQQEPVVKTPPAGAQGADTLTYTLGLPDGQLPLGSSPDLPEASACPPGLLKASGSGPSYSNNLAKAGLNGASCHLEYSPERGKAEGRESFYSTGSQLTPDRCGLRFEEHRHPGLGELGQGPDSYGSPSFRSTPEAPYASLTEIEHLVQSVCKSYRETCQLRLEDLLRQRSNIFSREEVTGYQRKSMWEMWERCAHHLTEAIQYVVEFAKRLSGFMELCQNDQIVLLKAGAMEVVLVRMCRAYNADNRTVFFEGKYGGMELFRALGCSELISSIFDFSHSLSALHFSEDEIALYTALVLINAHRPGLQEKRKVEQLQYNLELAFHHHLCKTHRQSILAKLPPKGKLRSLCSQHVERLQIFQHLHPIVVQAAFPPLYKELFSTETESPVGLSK
Method: It is well known that RORγ binds to a conserved non-coding sequence (CNS) enhancer element in the IL-17 promoter.
Culture medium was changed every 2 days.
The 4.3 Kb human IL-17 promoter containing the RORγ-specific CNS enhancer element was PCR amplified from human genomic DNA and cloned into a pGL3-TKLuc2Cp reporter plasmid.
The luciferase reporter plasmid and the RORγt overexpression plasmid were transfected into COS-7 cell line using 4 μL JetPEI™/μg of DNA. Briefly, 150 ng of DNA (ration 1/2 between RORE-Tk Luc2Cp and cDNA RORγt or the empty vector for the negative control) was served to transfect adherent COS-7 cells in a […] culture flask, in complete medium (see cos-7 cell line culture).
Cells were then detached (using trypsin) and washed by centrifugation at 300 g for 10 minutes. Cell pellet was resuspended in serum free/phenol red free DMEM and seeded in 384 well plates at a density of 10000 cells/well and then incubated for 4 h at 37° C.
Compounds were dissolved in 100% DMSO to obtain 10 mM stock solutions. For each compound, test concentrations were diluted in serum free/phenol red free DMEM using the Genesis Freedom 200™ (TECAN) and added to the cells to obtain a 0.3% DMSO final concentration (in a final volume of 40 μL per well).
The luciferase activity was then measured with 40 μL/well steady-Glo Luciferase assay system (Promega, Madison, Wis.) and after incubation at room temperature for 30 minutes. The luminescence was estimated using the Ultra384 reader (TECAN). Data were collected and analyzed using GraphPad Prism software (GraphPad Software V5.02, San Diego Calif. USA). IC50 in μM and E max in % were reported for each compound.

Structure (SMILES)	IC50 [1] [µM]	IC50 [2] [µM]
Cc1ccc(C(NC(=O)Cc2ccc(N3CCS(=O)(=O)CC3)cn2)c2ccc(C)o2)c(N2CCCCC2)c1 (stereo not drawn) [Cpd. 47, 2-[5-(1,1-dioxo-1-thiomorpholin-4-yl)pyridin-2-yl]-N-{[4-methyl-2-(piperidin-1-yl)phenyl](5-methylfuran-2-yl)methyl}acetamide]	< 1	< 0.1
Cc1ccc(C(NC(=O)Cc2cnc(N3CCS(=O)(=O)CC3)nc2)c2ccc(C)o2)c(C)c1 (stereo not drawn) [Cpd. 35, N-[(2,4-dimethylphenyl)(5-methylfuran-2-yl)methyl]-2-[2-(1,1-dioxo-1-thiomorpholin-4-yl)pyrimidin-5-yl]acetamide]	0.1 to 1	1 to 10
Cc1ccc(N2CCS(=O)(=O)CC2)cc1CC(=O)NC(c1ccccc1)c1ccccc1N1CCCCC1 (stereo not drawn) [Cpd. 2, 2-[5-(1,1-dioxo-1-thiomorpholin-4-yl)-2-methylphenyl]-N-{phenyl[2-(piperidin-1-yl)phenyl]methyl}acetamide]	1 to 10	1 to 10
COc1ccc(C(NC(=O)Cc2ccc(N3CCS(=O)(=O)CC3)c(C)c2)c2ccc(C)o2)c(N2CCC(C(F)(F)F)CC2)c1 (stereo not drawn) [Cpd. 14, 2-[4-(1,1-dioxo-1-thiomorpholin-4-yl)-3-methylphenyl]-N-({4-methoxy-2-[4-(trifluoromethyl)piperidin-1-yl]phenyl}(5-methylfuran-2-yl)methyl)acetamide]	0.1 to 1	0.1 to 1
Cc1ccc(C(NC(=O)Cc2ccc(O)c(N3CCS(=O)(=O)CC3)c2)c2ccc(C)o2)c(C)c1 (stereo not drawn) [Cpd. 43, N-[(2,4-dimethylphenyl)(5-methylfuran-2-yl)methyl]-2-[3-(1,1-dioxo-1-thiomorpholin-4-yl)-4-hydroxyphenyl]acetamide]	< 1	1 to 10
Cc1ccc(C(NC(=O)C(C)(C)c2ccc(N3CCS(=O)(=O)CC3)cc2)c2ccc(C)o2)c(C)c1 (stereo not drawn) [Cpd. 40, N-[(2,4-dimethylphenyl)(5-methylfuran-2-yl)methyl]-2-[4-(1,1-dioxo-1-thiomorpholin-4-yl)phenyl]-2-methylpropanamide]	< 1	0.1 to 1
Cc1ccc(C(NC(=O)Cc2ncc(N3CCS(=O)(=O)CC3)cn2)c2ccc(C)o2)c(N2CCCCC2)c1 (stereo not drawn) [Cpd. 65, 2-[5-(1,1-dioxo-1-thiomorpholin-4-yl)pyrimidin-2-yl]-N-{[4-methyl-2-(piperidin-1-yl)phenyl](5-methylfuran-2-yl)methyl}acetamide]	< 1	< 0.1
COc1cc(CC(=O)NC(c2ccc(C)o2)c2ccc(C)cc2N2CCCCC2)ccc1N1CCS(=O)(=O)CC1 (stereo not drawn) [Cpd. 29, 2-[4-(1,1-dioxo-1-thiomorpholin-4-yl)-3-methoxyphenyl]-N-{[4-methyl-2-(piperidin-1-yl)phenyl](5-methylfuran-2-yl)methyl}acetamide]	< 1	0.1 to 1
Cc1ccc(C(NC(=O)C2(c3ccc(N4CCS(=O)(=O)CC4)cc3)CCC2)c2ccc(C)o2)c(C)c1 (stereo not drawn) [Cpd. 41, N-[(2,4-dimethylphenyl)(5-methylfuran-2-yl)methyl]-1-[4-(1,1-dioxo-1-thiomorpholin-4-yl)phenyl]cyclobutane-1-carboxamide]	< 1	0.1 to 1
Cc1ccc(C(NC(=O)Cc2ccc(N3CCS(=O)(=O)CC3)cc2)c2ccc(C)o2)c(C(F)(F)F)c1 (stereo not drawn) [Cpd. 24, 2-[4-(1,1-dioxo-1-thiomorpholin-4-yl)phenyl]-N-{[4-methyl-2-(trifluoromethyl)phenyl](5-methylfuran-2-yl)methyl}acetamide]	0.1 to 1	1 to 10
Cc1ccc(C(NC(=O)C2(c3cccc(N4CCS(=O)(=O)CC4)c3)CC2)c2ccc(C)o2)c(C)c1 (stereo not drawn) [Cpd. 68, N-[(2,4-dimethylphenyl)(5-methylfuran-2-yl)methyl]-1-[3-(1,1-dioxo-1-thiomorpholin-4-yl)phenyl]cyclopropane-1-carboxamide]	< 1	0.1 to 1
Cc1ccc(C(NC(=O)Cc2cc(N3CCS(=O)(=O)CC3)ccc2C)c2ccccc2)c(N2CCOCC2)c1 (stereo not drawn) [Cpd. 7, 2-[5-(1,1-dioxo-1-thiomorpholin-4-yl)-2-methylphenyl]-N-{[4-methyl-2-(morpholin-4-yl)phenyl](phenyl)methyl}acetamide]	0.1 to 1	1 to 10
COc1ccc(C(NC(=O)C2(c3ccc(N4CCS(=O)(=O)CC4)cc3)CC2)c2ccc(C)o2)c(C)c1 (stereo not drawn) [Cpd. 44, 1-[4-(1,1-dioxo-1-thiomorpholin-4-yl)phenyl]-N-[(4-methoxy-2-methylphenyl)(5-methylfuran-2-yl)methyl]cyclopropane-1-carboxamide]	< 1	< 0.1
Cc1ccc(C(NC(=O)C2(c3cccc(N4CCS(=O)(=O)CC4)c3)CC2)c2ccc(C)o2)c(N2CCCCC2)c1 (stereo not drawn) [Cpd. 58, 1-[3-(1,1-dioxo-1-thiomorpholin-4-yl)phenyl]-N-{[4-methyl-2-(piperidin-1-yl)phenyl](5-methylfuran-2-yl)methyl}cyclopropane-1-carboxamide]	< 1	0.1 to 1
Cc1ccc(C(NC(=O)C2(c3ccc(N4CCS(=O)(=O)CC4)cc3)CCC2)c2ccc(C)o2)c(N2CCCCC2)c1 (stereo not drawn) [Cpd. 55, 1-[4-(1,1-dioxo-1-thiomorpholin-4-yl)phenyl]-N-{[4-methyl-2-(piperidin-1-yl)phenyl](5-methylfuran-2-yl)methyl}cyclobutane-1-carboxamide]	0.1 to 1	0.1 to 1
Cc1ccc(C(NC(=O)Cc2cc(N3CCOCC3)ccc2F)c2ccccc2)c(N2CCCCC2)c1 (stereo not drawn) [Cpd. 8, 2-[2-fluoro-5-(morpholin-4-yl)phenyl]-N-{[4-methyl-2-(piperidin-1-yl)phenyl](phenyl)methyl}acetamide]	0.1 to 1	1 to 10
COc1ccc(CC(=O)NC(c2ccc(C)o2)c2ccc(C)cc2N2CCCCC2)cc1N1CCS(=O)(=O)CC1 (stereo not drawn) [Cpd. 30, 2-[3-(1,1-dioxo-1-thiomorpholin-4-yl)-4-methoxyphenyl]-N-{[4-methyl-2-(piperidin-1-yl)phenyl](5-methylfuran-2-yl)methyl}acetamide]	0.1 to 1	0.1 to 1
COc1ccc(C(NC(=O)Cc2cnc(N3CCS(=O)(=O)CC3)nc2)c2ccc(C)o2)c(N2CCCCCC2)c1 (stereo not drawn) [Cpd. 45, N-{[2-(azepan-1-yl)-4-methoxyphenyl](5-methylfuran-2-yl)methyl}-2-[2-(1,1-dioxo-1-thiomorpholin-4-yl)pyrimidin-5-yl]acetamide]	< 1	0.1 to 1
